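Briefly, cells in 96-well plates were exposed to five compound concentrations for 48 h, and endpoints were estimated by linear interpolation. Abbreviation: GI50, concentration required for 50% inhibition of growth.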 Calls of active or inactive are those of the source. Cut-off read from the data, not from the text of the source: active = GI50 up to about 1.1 µM and inactive = higher. Where a SMILES comes first, the peptide text is derived from it. The star is where a group is joined. Boc = CC(C)(C)OC(=O)*
What was measured:
Test in all cases: growth of human tumour cells (NCI), 48 h
U-251 = system: U-251
SF-268 = system: SF-268
SK-MEL-2 = system: SK-MEL-2
K562 = system: K562
CAKI-1 = system: CAKI-1
HT-29 = system: HT-29
NCI-H226 = system: NCI-H226
SN12C = system: SN12C
Malme-3M = system: Malme-3M
RXF 393 = system: RXF 393
SF-295 = system: SF-295
MCF7 = system: MCF7
SF-539 = system: SF-539
SNB-75 = system: SNB-75
HCC 2998 = system: HCC 2998
HOP-62 = system: HOP-62
OVCAR-8 = system: OVCAR-8
BT-549 = system: BT-549
TK-10 = system: TK-10
KM12 = system: KM12
SW-620 = system: SW-620
SK-MEL-28 = system: SK-MEL-28
DU-145 = system: DU-145
CCRF-CEM = system: CCRF-CEM
ACHN = system: ACHN
RPMI-8226 = system: RPMI-8226
MDA-MB-435 = system: MDA-MB-435
NCI-H460 = system: NCI-H460
UACC-257 = system: UACC-257
HCT-116 = system: HCT-116
UO-31 = system: UO-31
MOLT-4 = system: MOLT-4
NCI-H23 = system: NCI-H23
IGROV-1 = system: IGROV-1
HOP-92 = system: HOP-92
HCT-15 = system: HCT-15
HL-60 = system: HL-60
NCI/ADR-RES = system: NCI/ADR-RES
786-0 = system: 786-0
PC-3 = system: PC-3
A549 = system: A549
EKVX = system: EKVX
SNB-19 = system: SNB-19
SR = system: SR
MDA-MB-231 = system: MDA-MB-231
MDA-N = system: MDA-N
COLO 205 = system: COLO 205
A498 = system: A498
UACC-62 = system: UACC-62
LOX IMVI = system: LOX IMVI
SK-OV-3 = system: SK-OV-3
OVCAR-5 = system: OVCAR-5
OVCAR-4 = system: OVCAR-4
OVCAR-3 = system: OVCAR-3
SK-MEL-5 = system: SK-MEL-5
M14 = system: M14
T47D = system: T47D
NCI-H522 = system: NCI-H522

CC(=O)OCC1OC(O[C@@H]2C[C@H]3C(C)(C)[C@H](OC(C)=O)CC[C@]3(C)[C@H]3CCC4=C([C@@H](C)C[C@@H](O)[C@H](O)C(C)(C)O)CC[C@@]4(C)[C@@]32C)C(O)C(O)C1O (some centres undefined)
GI50 (U-251): 14.6 µM (inactive) | GI50 (SF-268): 13.6 µM (inactive)

CC(=O)OCC(OC(C)=O)C(OC(C)=O)C(C=NN(C(C)=O)S(=O)(=O)c1ccc(/C=C2\NC(=O)NC2=O)cc1)OC(C)=O (centres undefined)
GI50 (SK-MEL-2): > 100 µM (inactive) | GI50 (K562): > 100 µM (inactive) | GI50 (CAKI-1): > 100 µM (inactive) | GI50 (HT-29): > 100 µM (inactive) | GI50 (NCI-H226): > 100 µM (inactive) | GI50 (SN12C): > 100 µM (inactive) | GI50 (Malme-3M): > 100 µM (inactive) | GI50 (RXF 393): > 100 µM (inactive) | GI50 (SF-295): > 100 µM (inactive) | GI50 (MCF7): > 100 µM (inactive) | GI50 (SF-539): > 100 µM (inactive) | GI50 (SNB-75): > 100 µM (inactive) | GI50 (HCC 2998): > 100 µM (inactive) | GI50 (HOP-62): > 100 µM (inactive) | GI50 (OVCAR-8): > 100 µM (inactive) | GI50 (BT-549): > 100 µM (inactive)

C(=C\c1ccc(-c2cn3cc(/C=C/C=N/NC4=NCCN4)ccc3n2)cc1)/C=N/NC1=NCCN1
GI50 (TK-10): 5.08 µM (inactive) | GI50 (KM12): 2 µM (inactive) | GI50 (SW-620): 0.083 µM (active) | GI50 (SK-MEL-28): 1.84 µM (inactive) | GI50 (DU-145): 2 µM (inactive) | GI50 (CCRF-CEM): 1.66 µM (inactive) | GI50 (SK-MEL-2): 1.35 µM (inactive) | GI50 (ACHN): 1.36 µM (inactive) | GI50 (K562): 0.461 µM (active) | GI50 (RPMI-8226): 0.0427 µM (active) | GI50 (CAKI-1): 1.3 µM (inactive) | GI50 (NCI-H226): 1.5 µM (inactive) | GI50 (MDA-MB-435): 1.29 µM (inactive) | GI50 (NCI-H460): 0.514 µM (active) | GI50 (UACC-257): 0.887 µM (active) | GI50 (HCT-116): 0.589 µM (active) | GI50 (UO-31): 3.09 µM (inactive) | GI50 (RXF 393): 1.51 µM (inactive) | GI50 (U-251): 0.399 µM (active) | GI50 (MOLT-4): 2.07 µM (inactive) | GI50 (NCI-H23): 1.72 µM (inactive) | GI50 (IGROV-1): 2.05 µM (inactive) | GI50 (HOP-92): 1.14 µM (inactive) | GI50 (HCT-15): 3.72 µM | GI50 (SF-539): 1.57 µM (inactive) | GI50 (SNB-75): 1.31 µM (inactive) | GI50 (HCC 2998): 1.19 µM (inactive) | GI50 (HL-60): 0.368 µM (active) | GI50 (NCI/ADR-RES): > 25.8 µM (inactive) | GI50 (786-0): 1.32 µM (inactive) | GI50 (OVCAR-8): 1.27 µM (inactive) | GI50 (PC-3): 1.47 µM (inactive) | GI50 (A549): 0.294 µM (active) | GI50 (EKVX): 1.6 µM (inactive) | GI50 (SNB-19): 1.27 µM (inactive) | GI50 (SR): 1.04 µM (active)

NC(=S)N/N=C1\C(=O)C=C(Nc2ccc(Cl)cc2Cl)c2ccccc21
GI50 (TK-10): 32.4 µM (inactive) | GI50 (MDA-MB-231): 10.3 µM (inactive) | GI50 (KM12): > 100 µM (inactive) | GI50 (SW-620): > 100 µM (inactive) | GI50 (SK-MEL-28): > 100 µM (inactive) | GI50 (MDA-N): > 100 µM (inactive) | GI50 (COLO 205): 35.9 µM (inactive) | GI50 (DU-145): 96.6 µM (inactive) | GI50 (A498): 23.3 µM (inactive) | GI50 (SK-MEL-2): 39.3 µM (inactive) | GI50 (ACHN): 10.3 µM (inactive) | GI50 (CAKI-1): 15.8 µM (inactive) | GI50 (HT-29): > 100 µM (inactive) | GI50 (NCI-H226): 33.6 µM (inactive) | GI50 (MDA-MB-435): > 100 µM (inactive) | GI50 (NCI-H460): 57.4 µM (inactive) | GI50 (SN12C): > 100 µM (inactive) | GI50 (UACC-257): > 100 µM (inactive) | GI50 (UACC-62): 2.64 µM (inactive) | GI50 (HCT-116): 56.2 µM (inactive) | GI50 (UO-31): 92 µM (inactive) | GI50 (RXF 393): 18.6 µM (inactive) | GI50 (U-251): 11 µM (inactive) | GI50 (MOLT-4): 51.2 µM (inactive) | GI50 (NCI-H23): 23.2 µM (inactive) | GI50 (IGROV-1): 22.2 µM (inactive) | GI50 (HOP-92): 15.8 µM (inactive) | GI50 (SF-295): 12.8 µM (inactive) | GI50 (LOX IMVI): 25.3 µM (inactive) | GI50 (MCF7): 48.9 µM (inactive) | GI50 (HCT-15): 31.1 µM | GI50 (SF-539): 7.38 µM (inactive) | GI50 (SK-OV-3): 12.4 µM (inactive) | GI50 (SNB-75): 11.5 µM (inactive) | GI50 (HCC 2998): > 100 µM (inactive) | GI50 (OVCAR-5): > 100 µM (inactive) | GI50 (HL-60): 84.3 µM (inactive) | GI50 (NCI/ADR-RES): 33.6 µM (inactive) | GI50 (HOP-62): 4.34 µM (inactive) | GI50 (786-0): 7.85 µM (inactive) | GI50 (OVCAR-8): 21.9 µM (inactive) | GI50 (BT-549): 18.7 µM (inactive) | GI50 (SF-268): 9.38 µM (inactive) | GI50 (OVCAR-4): 33.2 µM (inactive) | GI50 (OVCAR-3): 21.3 µM (inactive) | GI50 (A549): > 100 µM (inactive) | GI50 (SK-MEL-5): 27.4 µM (inactive) | GI50 (M14): 44.5 µM (inactive) | GI50 (T47D): 23.5 µM (inactive) | GI50 (EKVX): 22.1 µM (inactive) | GI50 (SNB-19): 25.5 µM (inactive)

COc1cc(Nc2nc3cc(N)cc(N)c3nc2-c2ccccc2)cc(OC)c1OC
GI50 (HT-29): 16.6 µM (inactive)

CC(C)(C)OC(=O)NC(Cc1ccccc1)C(=O)N1CCCC1C(N)=O (stereo not drawn) (Boc-Phe-Pro-NH2; configuration not given here)
GI50 (TK-10): > 100 µM (inactive) | GI50 (MDA-MB-231): > 100 µM (inactive) | GI50 (SW-620): > 100 µM (inactive) | GI50 (SK-MEL-28): > 100 µM (inactive) | GI50 (MDA-N): > 100 µM (inactive) | GI50 (COLO 205): > 100 µM (inactive) | GI50 (DU-145): > 100 µM (inactive) | GI50 (CCRF-CEM): > 100 µM (inactive) | GI50 (ACHN): > 100 µM (inactive) | GI50 (K562): > 100 µM (inactive) | GI50 (RPMI-8226): > 100 µM (inactive) | GI50 (CAKI-1): 9.29 µM (inactive) | GI50 (HT-29): > 100 µM (inactive) | GI50 (MDA-MB-435): > 100 µM (inactive) | GI50 (NCI-H460): > 100 µM (inactive) | GI50 (UACC-257): > 100 µM (inactive) | GI50 (Malme-3M): > 100 µM (inactive) | GI50 (UACC-62): > 100 µM (inactive) | GI50 (HCT-116): > 100 µM (inactive) | GI50 (MOLT-4): > 100 µM (inactive) | GI50 (IGROV-1): > 100 µM (inactive) | GI50 (HOP-92): 1.74 µM (inactive) | GI50 (SF-295): > 100 µM (inactive) | GI50 (LOX IMVI): > 100 µM (inactive) | GI50 (NCI-H522): > 100 µM (inactive) | GI50 (MCF7): > 100 µM (inactive) | GI50 (HCT-15): > 100 µM | GI50 (SK-OV-3): > 100 µM (inactive) | GI50 (HCC 2998): > 100 µM (inactive) | GI50 (HL-60): > 100 µM (inactive) | GI50 (HOP-62): > 100 µM (inactive) | GI50 (OVCAR-8): > 100 µM (inactive) | GI50 (PC-3): > 100 µM (inactive) | GI50 (SF-268): > 100 µM (inactive) | GI50 (OVCAR-4): > 100 µM (inactive) | GI50 (OVCAR-3): > 100 µM (inactive) | GI50 (A549): > 100 µM (inactive) | GI50 (SK-MEL-5): > 100 µM (inactive) | GI50 (M14): > 100 µM (inactive) | GI50 (T47D): > 100 µM (inactive) | GI50 (EKVX): > 100 µM (inactive) | GI50 (SNB-19): > 100 µM (inactive) | GI50 (SR): > 100 µM (inactive)

From ChEMBL document CHEMBL1201862, “PubChem BioAssay data set” (2004)
